This series can be described thus: Human HepG2 cell viability assay in 384 well format. The series is classed as toxicity, cell-based. More on the design: dose 125 nL, time 70.5 hour; cytotoxicity at 70.5 h: concentration not given beside the values. The note with it: HepG2 cells, read-out: Inhibition.

Each structure is given as a SMILES string.

In the case of `OC(CN1CCC(c2ccn[nH]2)CC1)c1cccc(C(F)(F)F)c1` (configuration not stated), the cytotoxicity at 70.5 h is -7.35%.

Regarding `O=C(c1cnc2c(cnn2C2CCCC2)c1)N1CCCSCC1`, the cytotoxicity at 70.5 h was -6.43%. On to `O=C(c1ccc(-n2ccnc2)cc1)N1CCCC(n2ccnc2)C1` (configuration not stated), for which the cytotoxicity at 70.5 h is -6.23%.

On to `CCN(CC1CCCO1)C(=O)Nc1cc(C(N)=O)ccc1OC` (configuration not stated), for which the cytotoxicity at 70.5 h is -5.25%. With `Cc1cnn(CC2CCCN2C(=O)c2ccccc2-n2cnnn2)c1` (configuration not stated), the cytotoxicity at 70.5 h is -4.97%. Turning to `Cc1cccc(NC2CCN(C(=O)Nc3ccncc3)CC2)n1`, the cytotoxicity at 70.5 h came to 24.2%. As to `Fc1ccc(-c2cnc(CN3CCOC(Cn4cccn4)C3)o2)cc1` (configuration not stated), the cytotoxicity at 70.5 h is -5.15%. On to `N#Cc1cccnc1N1CCCN(C(=O)CCc2nccs2)CC1`, for which the cytotoxicity at 70.5 h is -1.9%. Turning to `Cn1ccc2c(C(=O)N3CCCC3c3noc(C4CC4)n3)cccc21` (configuration not stated), the cytotoxicity at 70.5 h is -1.84%. Under `CCCc1noc2ncc(C(=O)N3CCCC3c3cnn(C)c3)cc12` (configuration not stated) stands -6.19%. In the case of `CCc1nccn1CC1CCCN1S(=O)(=O)Cc1ccccc1` (configuration not stated), the cytotoxicity at 70.5 h is -10.3%.

`O=C(c1cccc2cn[nH]c12)N1CCCC1c1noc(C2CC2)n1` (configuration not stated): the cytotoxicity at 70.5 h was -2.84%. For `CC(C)(C)c1cnc(CN2CCCCC2Cn2cccn2)o1` (configuration not stated) the value was 18.8%; for `CCc1c(C(=O)NC2CCS(=O)(=O)C2)cnn1-c1ccc(C)cc1` (configuration not stated), -6.41%.

For `Cc1cc(CN2CCN(C(=O)NCc3cccs3)CC2)no1`, the cytotoxicity at 70.5 h is -4.63%.

For `Cc1cccc(-n2ncc(C(=O)NCC3CCS(=O)(=O)C3)c2C)c1` (configuration not stated), the cytotoxicity at 70.5 h is 0.102%. Turning to `CCCc1noc(CN2CCC(c3ccnn3CCO)CC2)n1`, the cytotoxicity at 70.5 h was -0.994%.

As to `N#Cc1ccccc1N1CCCN(C(=O)CCc2ccsc2)CC1`, the cytotoxicity at 70.5 h was 1.39%. Turning to `Cc1cc(CN2CCN(C(=O)NCc3csc(C)n3)CC2)no1`, the cytotoxicity at 70.5 h was determined as 17.1%. For `Cc1cnn(C2CCCN(C(=O)Cc3n[nH]c4ccccc34)C2)c1` (configuration not stated), the cytotoxicity at 70.5 h was 0.337%. For `Cc1nc(C2CCN(C(=O)c3cc(C4CC4)[nH]n3)CC2)no1` the value was -0.899%; for `Fc1ccc(-c2nc(CN3CCCCC3Cn3cncn3)co2)cc1` (configuration not stated), -3.61%; for `O=c1[nH]c(CCN2CCCC2Cn2cncn2)nc2ccccc12` (configuration not stated), -9.5%. As for `Cn1cc(C2CCCN2CCc2nc3ccccc3c(=O)[nH]2)cn1` (configuration not stated), the cytotoxicity at 70.5 h is -2.12%.

In the case of `Cc1nn(C)c(C)c1C1CCCN1C(=O)c1cnc2onc(C)c2c1` (configuration not stated), the cytotoxicity at 70.5 h is -7.3%. For `Cc1cnn(CC2CCCCN2C(=O)c2n[nH]c3ccccc23)c1` (configuration not stated) the value was 16%. As to `O=C(CCCc1nnc(-c2ccccc2)o1)N1CCC1`, the cytotoxicity at 70.5 h was -14.2%.

With `Cc1nc(C2CCCN(C(=O)c3cc(C(C)(C)C)on3)C2)no1` (configuration not stated), the cytotoxicity at 70.5 h is -1.93%. Under `Cc1cc(CN2CCN(C(=O)NCc3ccoc3)CC2)no1` stands -1.05%.

With `Cc1nc(C)n(CC2CCCN(CC(=O)NC3CCOCC3)C2)n1` (configuration not stated), the cytotoxicity at 70.5 h worked out at 3.14%. For `CCN1CCC(NC(=O)CN2CCCC2Cn2nc(C)nc2C)CC1` (configuration not stated) the value was 3.87%; for `CN(Cc1nc(-c2ccoc2)no1)C1CCCN(c2cccnn2)C1` (configuration not stated), 1.16%. On to `CCn1cnnc1CNC(=O)N(C)C(C)c1cccs1` (configuration not stated), for which the cytotoxicity at 70.5 h is -0.961%. For `COc1cccc(CCNC(=O)CN2CCCC2c2noc(C)n2)c1` (configuration not stated) the value was -6.83%; for `CCS(=O)(=O)c1ccccc1N1CCC(NC(=O)c2ccc[nH]2)CC1`, -1.59%. Under `Cc1ccc(C(=O)NS(=O)(=O)c2cc(Cl)ccc2Cl)c(=O)[nH]1` stands -1.03%. Take `CC(C)c1nc2c(n1C)CCN(Cc1nc(-c3cccs3)no1)C2`: the cytotoxicity at 70.5 h was -9.62%. Turning to `Cc1csc(N2CCCN(C(=O)C(C)n3ccnc3)CC2)n1` (configuration not stated), the cytotoxicity at 70.5 h was -3.25%.

Take `CCc1ncc(C(=O)N2CCCCC2Cn2cccn2)s1` (configuration not stated): the cytotoxicity at 70.5 h is -7.11%. Under `CCN1CCN(C(=O)C(C)N2CCN(Cc3nccn3C)CC2)CC1` (configuration not stated) stands 0.843%; under `CN1CCN(C(=O)c2ccc(=O)n(C)c2)Cc2ccccc21`, -2.39%. In the case of `CN(Cc1ccncc1)CC(c1cccs1)N1CCOCC1` (configuration not stated), the cytotoxicity at 70.5 h was determined as 36%. For `CCc1nc(C2CCCN(C(=O)c3cccc4c3ccn4C)C2)no1` (configuration not stated) the value was -4.32%. In the case of `CCn1ccnc1CN1CCN(C(C)C(=O)N2CCC(C)CC2)CC1` (configuration not stated), the cytotoxicity at 70.5 h stood at 3.72%.

For the molecule `Cc1ccc(-c2noc(CN3CCOC(Cn4cncn4)C3)n2)cc1` (configuration not stated), the cytotoxicity at 70.5 h is -7.15%. Turning to `COCCN1CCN(CCCS(=O)(=O)c2ccccc2)CC1C` (configuration not stated), the cytotoxicity at 70.5 h turned out to be 0.059%.

`CN(C)C(=O)Cc1nc(CN2CCn3c(nnc3C3CC3)C2)cs1`: the cytotoxicity at 70.5 h was -18.5%. Consider `CC(=O)N(Cc1noc(C2CC2)n1)C1CCN(Cc2nccn2C)C1` (configuration not stated), for which the cytotoxicity at 70.5 h is -5.66%.

Take `c1sc(C2CCCC2)nc1CN1CCn2c(nnc2C2CC2)C1`: the cytotoxicity at 70.5 h turned out to be 4.56%.

Turning to `CC(C)c1ncc2c(n1)CN(Cc1nc(Cc3ccccc3)no1)CC2`, the cytotoxicity at 70.5 h was -24.3%. As for `CC(C)c1ncncc1C(=O)N1CCCN(Cc2cccs2)CC1`, the cytotoxicity at 70.5 h was -18.9%. For `COC(=O)c1cccc(NC(=O)CCn2nc(-c3cccs3)oc2=O)c1` the value was 0.767%. In the case of `O=C(NCCNc1ncccn1)C1CCN(c2ncccn2)CC1`, the cytotoxicity at 70.5 h is -10.8%. With `CC(NC(=O)CCC(=O)c1cccs1)c1nnc2n1CCCCC2` (configuration not stated), the cytotoxicity at 70.5 h is -15.6%. For the molecule `Cc1ccc(N(C)C2CCN(C(=O)CCc3ccco3)CC2)nn1`, the cytotoxicity at 70.5 h is -11.8%. `O=C1NCCN1C1CCCN(Cc2nnc(-c3ccc(F)cc3)o2)C1` (configuration not stated): the cytotoxicity at 70.5 h is -21.9%.

Consider `CNC(=O)c1cccc(NC(=O)Cn2nc(-c3cccs3)oc2=O)c1`, for which the cytotoxicity at 70.5 h is 20.9%. Under `Cc1ccc(NC2CCN(C(=O)CCNS(C)(=O)=O)CC2)nn1` stands -19%.

Turning to `NC(=O)COc1cccc(C(=O)N2CCCC(n3ccnc3)C2)c1` (configuration not stated), the cytotoxicity at 70.5 h was -14.8%. Turning to `CCc1nc(C2CCCN2C(=O)CCc2cccs2)no1` (configuration not stated), the cytotoxicity at 70.5 h was -5.42%. Under `CCOc1cc(C(=O)N2CCCC(n3cncn3)C2)ccc1C` (configuration not stated) stands -20.7%.

`CCc1nc(C2CCCN2C(=O)CCc2ccc3c(c2)OCO3)no1` (configuration not stated): the cytotoxicity at 70.5 h is -24.9%. For the molecule `CC1COCCN1Cc1nc(-c2cccc(Br)c2)no1` (configuration not stated), the cytotoxicity at 70.5 h amounted to 13.8%. Take `Cc1ccccc1C1(C(=O)NCCN2CCCC2)CCOCC1`: the cytotoxicity at 70.5 h is -13.9%.

On to `Cc1noc(C(C)N2CCN(CCCN3CCCC3=O)CC2)n1` (configuration not stated), for which the cytotoxicity at 70.5 h is -11.4%.

Regarding `Cc1ccccc1CNC(=O)CN1CCN(Cc2nccn2C)CC1`, the cytotoxicity at 70.5 h was -20.5%.

With `Cc1cnn(CC2CCCN2Cc2ncc(-c3ccccc3)o2)c1` (configuration not stated), the cytotoxicity at 70.5 h was -18.8%.

For the molecule `Cc1nc(C)n(CC2CCCN(Cc3cccc(C#N)c3)C2)n1` (configuration not stated), the cytotoxicity at 70.5 h is -15.1%. For `COc1c(CNCc2cccc(Cn3ccnc3)c2)c(C)nn1C`, the cytotoxicity at 70.5 h was -1.14%.

As to `Cn1ccc(C(=O)N2CCN(c3ncccn3)CC2)cc1=O`, the cytotoxicity at 70.5 h is -20.4%. For `Cn1cnc(S(=O)(=O)NCCN2CCCCCC2=O)c1Cl` the value was 14.4%; for `COc1c(CNCc2cccc(CN(C)C)c2)c(C)nn1C`, -12.7%.
